pIC50: −log10 of the molar value.
System: 349418-098-R-PDC complex spheroid growth
Experiment: Anticancer human tumor 349418-098-R-PDC patient-derived lung adenocarcinoma cell line growth inhibition [AhR]
Settings: for pIC50: curve of first compound; for viability, T/C: stronger effect = lower value
Outline: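 Spheroids combined tumor cells with HUVEC endothelial cells and human MSCs as stroma. AhR antagonists were paired with standard or investigational drugs, each dosed in half-log steps down from near clinical Cmax, or from 10 microM where Cmax was unknown.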

[1] = second compound 0.1 µM, first compound 0.0316 µM
[2] = second compound 0.1 µM, first compound 0.1 µM
[3] = second compound 0.1 µM, first compound 0.316 µM
[4] = second compound 0.1 µM, first compound 1 µM
[5] = second compound 0.1 µM, first compound 3.16 µM
[6] = second compound 0.1 µM, first compound 10 µM
[7] = second compound 0.316 µM, first compound 0.0316 µM
[8] = second compound 0.316 µM, first compound 0.1 µM
[9] = second compound 0.316 µM, first compound 0.316 µM
[10] = second compound 0.316 µM, first compound 1 µM
[11] = second compound 0.316 µM, first compound 3.16 µM
[12] = second compound 0.316 µM, first compound 10 µM
[13] = second compound 1 µM, first compound 0.0316 µM
[14] = second compound 1 µM, first compound 0.1 µM
[15] = second compound 1 µM, first compound 0.316 µM
[16] = second compound 1 µM, first compound 1 µM
[17] = second compound 1 µM, first compound 3.16 µM
[18] = second compound 1 µM, first compound 10 µM
[19] = second compound 3.16 µM, first compound 0.0316 µM
[20] = second compound 3.16 µM, first compound 0.1 µM
[21] = second compound 3.16 µM, first compound 0.316 µM
[22] = second compound 3.16 µM, first compound 1 µM
[23] = second compound 3.16 µM, first compound 3.16 µM
[24] = second compound 3.16 µM, first compound 10 µM
[25] = second compound 10 µM, first compound 0.0316 µM
[26] = second compound 10 µM, first compound 0.1 µM
[27] = second compound 10 µM, first compound 0.316 µM
[28] = second compound 10 µM, first compound 1 µM
[29] = second compound 10 µM, first compound 3.16 µM
[30] = second compound 10 µM, first compound 10 µM
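Note: spheroids exposed to agents for seven days before luminescence viability read.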
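Throughout, for viability, T/C: spheroids also contain HUVEC endothelial cells and human MSC stroma.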

Structure (SMILES) | pIC50 (second compound 0.1 µM) | pIC50 (second compound 0.316 µM) | pIC50 (second compound 1 µM) | pIC50 (second compound 3.16 µM) | pIC50 (second compound 10 µM) | viability, T/C [1] [%] | viability, T/C [2] [%] | viability, T/C [3] [%] | viability, T/C [4] [%] | viability, T/C [5] [%] | viability, T/C [6] [%] | viability, T/C [7] [%] | viability, T/C [8] [%] | viability, T/C [9] [%] | viability, T/C [10] [%] | viability, T/C [11] [%] | viability, T/C [12] [%] | viability, T/C [13] [%] | viability, T/C [14] [%] | viability, T/C [15] [%] | further results
COc1cc(Nc2ncc3c(n2)-c2ccc(Cl)cc2C(c2c(F)cccc2OC)=NC3)ccc1C(=O)O + Cc1cncc(-c2nc(NCCc3c[nH]c4ccccc34)c3ncn(C(C)C)c3n2)c1 | 6.71 | 6.62 | 6.57 | > 7.50 | > 7.50 | 68.8 | 58.2 | 42.4 | 40.8 | 36.3 | 33.1 | 72.6 | 68.6 | 44.4 | 47.8 | 41.1 | 43.9 | 67.7 | 57.3 | 46.7 | viability, T/C [16]: 48.8%; viability, T/C [17]: 40.3%; viability, T/C [18]: 44.8%; viability, T/C [19]: 19.7%; viability, T/C [20]: 20%; viability, T/C [21]: 14.1%; viability, T/C [22]: 12.7%; viability, T/C [23]: 14.7%; viability, T/C [24]: 17.9%; viability, T/C [25]: 3.34%; viability, T/C [26]: 2.89%; viability, T/C [27]: 2.53%; viability, T/C [28]: 2.17%; viability, T/C [29]: 2.59%; viability, T/C [30]: 3.53%
CC1COCCN1c1cc(C2(S(C)(=N)=O)CC2)nc(-c2ccnc3[nH]ccc23)n1 (stereo not given) + CC(CO)NC(=O)c1cc(-c2ccc(Cl)cc2)nn(-c2cnn(C)c2)c1=O | 5.82 | 5.77 | 5.85 | 6.12 | 5.90 | 84.5 | 71.8 | 69.6 | 65.7 | 24.4 | 12.5 | 70 | 80.7 | 66.8 | 73.2 | 24.2 | 10.4 | 67.6 | 89.1 | 85.2 | viability, T/C [16]: 59%; viability, T/C [17]: 25.7%; viability, T/C [18]: 12.5%; viability, T/C [19]: 83.9%; viability, T/C [20]: 55.9%; viability, T/C [21]: 78.9%; viability, T/C [22]: 42.4%; viability, T/C [23]: 21.4%; viability, T/C [24]: 13.4%; viability, T/C [25]: 59.1%; viability, T/C [26]: 56.9%; viability, T/C [27]: 59.8%; viability, T/C [28]: 57.7%; viability, T/C [29]: 20.2%; viability, T/C [30]: 11.7%
